≈ marks a conversion by molar mass, not a printed value.
What was measured:
[1] = Solubility of Compound 1 free base in aqueous at various pH; format: physicochemical; details: aqueous solution, aqueous buffer
Text: (§1) The rate is time and temperature sensitive (Table 1). The isolation of the crystalline bis-besylate salt of Compound 1 avoids the need for a pH swing. Also, the crystalline freebase has poor morphology which makes filtration slow, increasing the risk for racemization.

[2] = Chiral stability (racemization) of Compound 1 free base in aqueous at various pH; format: physicochemical; details: for Chiral Purity: aqueous
Text: as §1

O=C1CC[C@H](N2C(=O)c3cccc(NCc4ccc(CN5CC(N6CCOCC6)C5)cc4F)c3C2=O)C(=O)N1 [Compound 1 Free Base, (S)-2-(2,6-dioxopiperidin-3-yl)-4-((2-fluoro-4-((3-morpholinoazetidin-1-yl)methyl)benzyl)amino)isoindoline-1,3-dione]
solubility at 3 h ([1]; pH 5.3, time 3 h): 4500 µg/mL (≈ 8.4 mM)
solubility at 4 h ([1]; pH 6.7, time 4 h): 2400 µg/mL (≈ 4.48 mM)
solubility at 4 h ([1]; pH 7.6, time 4 h): 400 µg/mL (≈ 0.747 mM)
Chiral stability towards aqueous base ([2]; aqueous base, rate is time and temperature sensitive): racemization was observed
Chiral Purity ([2]; pH 5.3, time 3 h): 94.1%
Chiral Purity ([2]; pH 6.7, time 4 h): 89.1%
Chiral Purity ([2]; pH 7.6, time 4 h): 83.2%

O=C1CC[C@H](N2C(=O)c3cccc(NCc4ccc(CN5CC(N6CCOCC6)C5)cc4F)c3C2=O)C(=O)N1.O=S(=O)(O)c1ccccc1.O=S(=O)(O)c1ccccc1 [Compound 1 bis-besylate salt, (S)-2-(2,6-dioxopiperidin-3-yl)-4-((2-fluoro-4-((3-morpholinoazetidin-1-yl)methyl)benzyl)amino)isoindoline-1,3-dione bis-besylate salt]
Chiral stability compared to the crystalline freebase ([2]; isolated solid, compared to crystalline freebase): more stable
